# Where “and” joins values, the source holds several entries; their conditions need not be identical. Equal values may be shown once.
# Key:
# [1] = Plasma Protein Binding (equilibrium dialysis); format: in vitro ADME, mouse
# Description: The assay was performed in a multiple-use 96-well dialysis unit (HTD96b dialyzer). Each individual well unit consisted of 2 chambers separated by a vertically aligned dialysis membrane of predetermined pore size (MWCO 12–14 kDa). 120 μL of non-diluted plasma spiked with the compound (1 μM, final DMSO concentration 1%) was added to one chamber, and the same volume of PBS buffer pH 7.4 to the other chamber. The HTD96b dialyzer was covered with adhesive sealing film and incubated 5 h at 37°C while shaking at 100 rpm. For sample preparation, an aliquot of the contents of each chamber was mixed with the same volume of the blank opposite matrix. In order to define non-specific loss of the compound during this assay, a standard solution was created by mixing an aliquot of spiked plasma with blank buffer without dialysis. Two aliquots of the standard solution were incubated at 37°C, shaking at 100 rpm for 5 h (recovery samples). The other two aliquots were immediately diluted with acetonitrile and stored at 4°C until analysis (stability samples). All samples were diluted 5-fold with internal standard diluted in 100% methanol with subsequent plasma proteins sedimentation by centrifuging at 6000 rpm for 5 minutes. Supernatants were analyzed using LC-MS/MS. The percentage of plasma protein bound compound, recovery and stability were calculated using following equations.
# Proteinbinding={(1−(arearatioinbuffer)/(arearatioinplasma)}.100%
# Recovery={(arearatioinbuffer+peakareainplasma)/arearatioinrecoverysample}.100%
# Stability={arearatioinrecoverysample/arearatioinstabilitysample}.100%
# [2] = Single administration dose escalation study (MTD, body weight, clinical observations), female CD1 mice; format: in vivo; conditions: for Body weight change, Mean / Body weight change: day 7 vs initial weight; for Body weight change, Mean: group mean
# Description: Mice were dosed on day 1 and clinical condition recorded at 0.5 h, 2 h, 4 h, 6 h, and days 1–7 (S6 Table).
# Gc - general condition observation
# X - treatment with compound or vehicle
# [3] = mouse plasma, 1.0 µM, individual incubations
smiles,measurement,setting,value
N#Cc1ccc(/C=C2/C(=O)/C(=C/c3ccc(C#N)cc3)C23CCNCC3)cc1 [Up284],"% of bound compound, mean","[1]; mouse plasma, 1.0 µM",98%
same,"Stability, %","[1]; mouse plasma, 1.0 µM, 5 h 37°C",109%
same,% of bound compound,[1]; [3],98% and 97%
same,"Recovery, %",[1]; [3],101%
same,"recovery at 5 h, 1 µM","[1]; mouse, non-diluted plasma, pH 7.4, mouse plasma, individual incubations",98%
same,"Body weight, Mean","[2]; IP 40 mg/kg single dose, day 0, group mean",24.20 g
same,Body weight,"[2]; IP 40 mg/kg single dose, day 0, individual mice, 40 mg/kg",25.6 g and 24.3 g and 22.7 g
same,"Body weight, Mean","[2]; IP 40 mg/kg single dose, day 1, group mean",22.83 g
same,Body weight,"[2]; IP 40 mg/kg single dose, day 1, individual mice, 40 mg/kg",23.9 g and 22.7 g and 21.9 g
same,"Body weight, Mean","[2]; IP 40 mg/kg single dose, day 2, group mean",22.97 g
same,Body weight,"[2]; IP 40 mg/kg single dose, day 2, individual mice, 40 mg/kg",23.3 g and 22.3 g
same,"Body weight, Mean","[2]; IP 40 mg/kg single dose, day 3, group mean",23.80 g
same,Body weight,"[2]; IP 40 mg/kg single dose, day 3, individual mice, 40 mg/kg",24.2 g and 24.5 g and 22.7 g
same,"Body weight, Mean","[2]; IP 40 mg/kg single dose, day 4, group mean",23.87 g
same,Body weight,"[2]; IP 40 mg/kg single dose, day 4, individual mice, 40 mg/kg",24.5 g and 24.6 g and 22.5 g
same,"Body weight, Mean","[2]; IP 40 mg/kg single dose, day 5, group mean",24.43 g
same,Body weight,"[2]; IP 40 mg/kg single dose, day 5, individual mice, 40 mg/kg",25.0 g and 25.1 g and 23.2 g
same,"Body weight, Mean","[2]; IP 40 mg/kg single dose, day 6, group mean",24.13 g
same,Body weight,"[2]; IP 40 mg/kg single dose, day 6, individual mice, 40 mg/kg",25.3 g and 24.6 g and 22.5 g
same,"Body weight, Mean","[2]; IP 40 mg/kg single dose, day 7, group mean",24.83 g
same,Body weight,"[2]; IP 40 mg/kg single dose, day 7, individual mice, 40 mg/kg",26.2 g and 24.5 g and 23.8 g
same,"Body weight change, Mean",[2]; IP 40 mg/kg single dose,2.67%
same,Body weight change,"[2]; IP 40 mg/kg single dose, individual mice, 40 mg/kg",2.34% and 0.82% and 4.85%
same,Clinical observation,"[2]; IP 40 mg/kg, day 0, 0.5 h, individual mice",DPEh
same,Clinical observation,"[2]; IP 40 mg/kg, day 0, 2 h, individual mice",HDPEh
same,Clinical observation,"[2]; IP 40 mg/kg, day 0, 4 h, individual mice",HDPEh
same,Clinical observation,"[2]; IP 40 mg/kg, day 0, 6 h, individual mice",DPEh
same,Clinical observation,"[2]; IP 40 mg/kg, day 0, time 0, individual mice",0
same,Clinical observation,"[2]; IP 40 mg/kg, day 1, individual mice, 40 mg/kg",0
same,Clinical observation,"[2]; IP 40 mg/kg, day 2, individual mice",0
same,Clinical observation,"[2]; IP 40 mg/kg, day 3, individual mice",0
same,Clinical observation,"[2]; IP 40 mg/kg, day 4, individual mice",0
same,Clinical observation,"[2]; IP 40 mg/kg, day 5, individual mice",0
same,Clinical observation,"[2]; IP 40 mg/kg, day 6, individual mice",0
same,Clinical observation,"[2]; IP 40 mg/kg, day 7, individual mice",0
same,"Body weight, Mean","[2]; IP 60 mg/kg single dose, day 0, group mean",24.00 g
same,Body weight,"[2]; IP 60 mg/kg single dose, day 0, individual mice, 60 mg/kg",24.4 g and 25.1 g and 22.5 g
same,Body weight,"[2]; IP 60 mg/kg single dose, day 1, individual mice",died
same,"Body weight change, Mean",[2]; IP 60 mg/kg single dose,-100.00%
same,Clinical observation,"[2]; IP 60 mg/kg, day 0, 0.5 h, individual mice",DPEh
same,Clinical observation,"[2]; IP 60 mg/kg, day 0, 2 h, individual mice",HDPEh
same,Clinical observation,"[2]; IP 60 mg/kg, day 0, 4 h, individual mice",HDPEh
same,Clinical observation,"[2]; IP 60 mg/kg, day 0, 6 h, individual mice",DPEh
same,Clinical observation,"[2]; IP 60 mg/kg, day 0, time 0, individual mice",0
same,Clinical observation,"[2]; IP 60 mg/kg, day 1, individual mice",died
same,"Body weight, Mean","[2]; IV 40 mg/kg single dose, day 0, group mean",24.50 g
same,Body weight,"[2]; IV 40 mg/kg single dose, day 0, individual mice, 40 mg/kg",26.2 g and 23.2 g and 24.1 g
same,"Body weight, Mean","[2]; IV 40 mg/kg single dose, day 1, group mean",23.90 g
same,Body weight,"[2]; IV 40 mg/kg single dose, day 1, individual mice, 40 mg/kg",25.5 g and 22.6 g and 23.6 g
same,"Body weight, Mean","[2]; IV 40 mg/kg single dose, day 2, group mean",24.07 g
same,Body weight,"[2]; IV 40 mg/kg single dose, day 2, individual mice, 40 mg/kg",25.7 g and 22.4 g and 24.1 g
same,"Body weight, Mean","[2]; IV 40 mg/kg single dose, day 3, group mean",25.03 g
same,Body weight,"[2]; IV 40 mg/kg single dose, day 3, individual mice, 40 mg/kg",26.5 g and 23.6 g and 25.0 g
same,"Body weight, Mean","[2]; IV 40 mg/kg single dose, day 4, group mean",25.23 g
same,Body weight,"[2]; IV 40 mg/kg single dose, day 4, individual mice, 40 mg/kg",27.7 g and 22.9 g and 25.1 g
same,"Body weight, Mean","[2]; IV 40 mg/kg single dose, day 5, group mean",25.17 g
same,Body weight,"[2]; IV 40 mg/kg single dose, day 5, individual mice, 40 mg/kg",28.0 g and 23.0 g and 24.5 g
same,"Body weight, Mean","[2]; IV 40 mg/kg single dose, day 6, group mean",24.97 g
same,Body weight,"[2]; IV 40 mg/kg single dose, day 6, individual mice, 40 mg/kg",27.2 g and 22.6 g and 25.1 g
same,"Body weight, Mean","[2]; IV 40 mg/kg single dose, day 7, group mean",25.07 g
same,Body weight,"[2]; IV 40 mg/kg single dose, day 7, individual mice, 40 mg/kg",27.2 g and 23.2 g and 24.8 g
same,"Body weight change, Mean",[2]; IV 40 mg/kg single dose,2.24%
same,Body weight change,"[2]; IV 40 mg/kg single dose, individual mice, 40 mg/kg",3.82% and 0.00% and 2.90%
same,Clinical observation,"[2]; IV 40 mg/kg, day 0, 2 h, individual mice",0
same,Clinical observation,"[2]; IV 40 mg/kg, day 0, 4 h, individual mice",0
same,Clinical observation,"[2]; IV 40 mg/kg, day 0, 6 h, individual mice",0
same,Clinical observation,"[2]; IV 40 mg/kg, day 0, time 0, individual mice",0
same,Clinical observation,"[2]; IV 40 mg/kg, day 1, individual mice",0
same,Clinical observation,"[2]; IV 40 mg/kg, day 2, individual mice",0
same,Clinical observation,"[2]; IV 40 mg/kg, day 3, individual mice",0
same,Clinical observation,"[2]; IV 40 mg/kg, day 4, individual mice",0
same,Clinical observation,"[2]; IV 40 mg/kg, day 5, individual mice",0
same,Clinical observation,"[2]; IV 40 mg/kg, day 6, individual mice",0
same,Clinical observation,"[2]; IV 40 mg/kg, day 7, individual mice",0
same,"Body weight, Mean","[2]; IV 60 mg/kg single dose, day 0, group mean",24.43 g
same,Body weight,"[2]; IV 60 mg/kg single dose, day 0, individual mice, 60 mg/kg",26.0 g and 22.7 g and 24.6 g
same,"Body weight, Mean","[2]; IV 60 mg/kg single dose, day 1, group mean",24.47 g
same,Body weight,"[2]; IV 60 mg/kg single dose, day 1, individual mice, 60 mg/kg",26.7 g and 22.6 g and 24.1 g
same,"Body weight, Mean","[2]; IV 60 mg/kg single dose, day 2, group mean",24.77 g
same,Body weight,"[2]; IV 60 mg/kg single dose, day 2, individual mice, 60 mg/kg",27.1 g and 23.4 g and 23.8 g

# From publication PMC10266688 (PLOS ONE, 2023)
